The record followed here is US6936602B1, “Benzazepine derivatives, process for the preparation of the same and uses thereof” (Takeda Chemical Industries, Ltd., priority 1999, dated 2005).

The structures appear in SMILES notation.

T1 sequence (P51681 whole entry): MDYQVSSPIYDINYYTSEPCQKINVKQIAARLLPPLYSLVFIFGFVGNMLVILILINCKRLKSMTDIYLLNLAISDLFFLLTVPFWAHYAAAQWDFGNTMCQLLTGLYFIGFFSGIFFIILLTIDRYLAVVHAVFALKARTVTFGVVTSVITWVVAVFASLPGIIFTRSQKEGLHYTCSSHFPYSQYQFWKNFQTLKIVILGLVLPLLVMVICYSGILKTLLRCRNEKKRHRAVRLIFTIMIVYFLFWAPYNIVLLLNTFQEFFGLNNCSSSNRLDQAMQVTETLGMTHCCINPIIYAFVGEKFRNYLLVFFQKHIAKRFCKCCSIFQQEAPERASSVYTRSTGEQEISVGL

The first data set has as its target T1, human CCR5 (Homo sapiens, UniProt P51681).
T1 construct: expressed in transfected cells
Put plainly: Evaluation of test compounds based on CCR5 antagonistic activity: inhibition of [125I]-RANTES binding to CCR5/CHO cells. The settings on record: Test Compound 1 μM, 100 pM [125I]-RANTES, room temperature for 40 minutes. Here is the method: Cloning of CCR5 gene was carried out by a PCR method from human spleen cDNA. With using 0.5 ng of spleen cDNA (Toyobo, QUICK-Clone cDNA) as template, PCR was performed in DNA Thermal Cycler 480 (Perkin-Elmer) (reaction conditions: 30 cycles of 95° C. for 1 minute, 60° C. for 1 minute, and 75° C. for 5 minutes) by adding each 25 pmol of primers of a primer set, • SEQ ID NO.: 1 described in Test Example (1) of WO 99/32100 [length of sequence: 34; type of sequence: nucleic acid; strandedness: single; topology: straight; kind of sequence: other nucleic acid synthetic DNA, and • SEQ ID NO.: 2 described in Test Example (1) of WO 99/32100 [length of sequence: 34; type of sequence: nucleic acid; strandedness: single; topology: straight; kind of sequence: other nucleic acid synthetic DNA which were designed referring to nucleotide sequence of CCR5 gene reported by Samson et. al. (Biochemistry, 35(11), 3362-3367 (1996)) and by using TaKaRa EX Taq (Takara Shuzo). The resultant PCR product was subjected to agarose gel electrophoresis to collect about 1.0 kb DNA fragment, which was subjected to Original TA Cloning Kit (Funakoshi) to carry out cloning of CCR5 gene. (2) Preparation of Plasmid for Expression of Human CCR5
The plasmid obtained in the above (1) was digested with restriction enzymes XbaI (Takara Shuzo) and BamHI (Takara Shuzo) and subjected to agarose gel electrophoresis to collect about 1.0 kb DNA fragment.
The DNA fragment was mixed with plasmid pcDNA3.1 (Funakoshi) for expression in animal cells, said plasmid being digested with XbaI and BamHI, and they were ligated with DNA Ligation Kit Ver.2 (Takara Shuzo). The resulting plasmid was subjected to transformation of competent cell of E. coli JM109 (Takara Shuzo) to obtain plasmid pCKR5.
CHO-K1 cells were grown in 750 ml of tissue culture flask (Becton Dickinson) using Ham's F12 medium (Nihon Pharmaceutical) containing 10% fetal calf serum (Life Tech Oriental) and taken off with 0.5 g/L trypsin-0.2 g/L EDTA (Life Tech Oriental). The cells were washed with PBS (Life Tech Oriental), centrifuged (1000 rpm, 5 minutes), and suspended in PBS. With using Gene Pulser (Bio-Rad Laboratories), DNA was introduced into the cells under the conditions shown below. That is, to the cuvette of 0.4 cm gap were added 8×10^6 cells and 10 μg of plasmid pCKR5 for expression of human CCR5, and electroporation was carried out under 0.25 kV of voltage and 960 μF of capacitance. The cells were transferred into Ham's F12 medium containing 10% fetal calf serum, and cultivated for 24 hours. The cells were again taken off and centrifuged, and suspended in Ham's F12 medium containing 10% fetal calf serum and 500 μg/ml of geneticin (Life Tech Oriental). The suspension was diluted to give 10^4 cells/ml of the suspension, which was inoculated on a 96 well plate (Becton Dickinson) to give geneticin resistant cells.
The resulting geneticin resistant cells were cultivated in 96 well plate (Becton Dickinson), and cells expressing CCR5 were selected from the geneticin resistant cells. That is, in assay buffer (Ham's F12 medium containing 0.5% BSA and 20 mM HEPES (Wako Pure Chemical, pH7.2)) to which was added 200 pM of [^125I]-RANTES (Amersham) as a ligand, a binding reaction was carried out at room temperature for 46 minutes, and the buffer was washed with cooled PBS. To the buffer was added 50 μl/well of 1M NaOH, and the mixture was stirred. Radioactivity was determined with a y-counter to select CCR5/CHO cells which specifically bind to the ligand.
The CCR5/CHO cells were inoculated on 96 well microplate (5×10^4 cells/well) and cultivated for 24 hours. The medium was removed by means of suction, and to each well was added an assay buffer containing Test Compound (1 μM) and then 100 pM of [^125I]-RANTES (Amersham) as a ligand. A binding assay was carried out at room temperature for 40 minutes, and an assay buffer was removed by means of suction. […]
Consider `CCCCOCCOc1ccc(-c2ccc3c(c2)C=C(C(=O)Nc2ccc(CN(C)C4CCOCC4)cc2)CCN3CC)cc1` [Compound 19, 7-[4-(2-butoxyethoxy)phenyl]-1-ethyl-N-[4-[[N-methyl-N-(tetrahydro-2H-pyran-4-yl)amino]methyl]phenyl]-2,3-dihydro-1-H-1-benzazepine-4-carboxamide], for which the “Inhibitory Rate (%)” value is on record as 100%.

The data set is the same for the next values; noted with them: Test Compound 1 μM, 100 pM [125I]-RANTES, room temperature for 40 minutes, read-out: Inhibitory Rate (%).
On to `CCOCCOc1ccc(-c2ccc3c(c2)C=C(C(=O)Nc2ccc(CN(C)C4CCOCC4)cc2)CCN3C=O)cc1F` [Compound 20, 7-[4-(2-ethoxy)ethoxy-3-fluorophenyl]-1-formyl-N-[4-[[N-methyl-N-(tetrahydro-2H-pyran-4-yl)amino]methyl]phenyl]-2,3-dihydro-1H-1-benzazepine-4-carboxamide], for which the inhibition at 1 µM was determined as 94%.

For `CCCCOCCOc1ccc(-c2ccc3c(c2)C=C(C(=O)Nc2ccc(CN(C)C4CCOCC4)cc2)CCN3c2ccccc2)cc1` [Compound 39, 7-[4-(2-butoxyethoxy)phenyl]-1-phenyl-N-[4-[[N-methyl-N-(tetrahydro-2H-pyran-4-yl)amino]methyl]phenyl]-2,3-dihydro-1H-1-benzazepine-4-carboxamide], the inhibition at 1 µM amounted to 98%.

As for `CCCCOCCOc1ccc(-c2ccc3c(c2)C=C(C(=O)Nc2ccc(CN(C)C4CCOCC4)cc2)CCN3c2ccc3c(c2)OCO3)cc1` [Compound 43, 7-[4-(2-butoxyethoxy)phenyl]-1-(3,4-methylenedioxyphenyl)-N-[4-[[N-methyl-N-(tetrahydro-2H-pyran-4-yl)amino)methyl]phenyl]-2,3-dihydro-1H-1-benzazepine-4-carboxamide], the inhibition at 1 µM worked out at 100%.

With `CCCCOCCOc1ccc(-c2ccc3c(c2)C=C(C(=O)Nc2ccc(CN(C)C4CCOCC4)cc2)CCN3Cc2nccs2)cc1` [Compound 68, 7-(4-butoxyethoxyphenyl)-N-[4-[[N-methyl-N-(tetrahydropyran-4-yl)amino]methyl]phenyl]-1-(thiazol-2-yl)methyl-2,3-dihydro-1-benzazepine-4-carboxamide], the inhibition at 1 µM came out at 95%.

`CCCCOCCOc1ccc(-c2ccc3c(c2)C=C(C(=O)Nc2ccc(CN(C)C4CCOCC4)cc2)CCN3Cc2cnn(C)c2)cc1` [Compound 69, 7-(4-butoxyethoxyphenyl)-1-[(1-methylpyrazol-4-yl)methyl]-N-[4-[[N-methyl-N-(tetrahydropyran-4-yl)amino]methyl]phenyl]-2,3-dihydro-1-benzazepine-4-carboxamide]: the inhibition at 1 µM came out at 100%.

System in a further data set: not given
Experiment: not given
Conditions: not given
For the molecule `CCCCOCCOc1ccc(-c2ccc3c(c2)C=C(C(=O)Nc2ccc(CN(C)C4CCOCC4)cc2)CCN3Cc2ccc(OC)cc2)cc1` [Compound 56, 7-(4-butoxyethoxyphenyl)-1-(4-methoxybenzyl)-N-[4-[[N-methyl-N-(tetrahydropyran-4-yl)amino]methyl]phenyl]-2,3-dihydro-1-benzazepine-4-carboxamide], the melting point – broadly, the temperature of the solid-liquid transition – was 151 to 152 °C.

`CCCOCCOc1ccc(-c2ccc3c(c2)C=C(C(=O)Nc2ccc(CN(C)C4CCOCC4)cc2)CCN3Cc2ccsc2)cc1` [Compound 57, N-[4-[[N-methyl-N-(tetrahydropyran-4-yl)amino]methyl]phenyl]-7-(4-propoxyethoxyphenyl)-1-(3-thienylmethyl)-2,3-dihydro-1-benzazepine-4-carboxamide] came in with a melting point of 131.5 to 132.5 °C.

For the molecule `CCCOCCOc1ccc(-c2ccc3c(c2)C=C(C(=O)Nc2ccc(CN(C)C4CCOCC4)cc2)CCN3Cc2cccs2)cc1` [Compound 59, N-[4-[[N-methyl-N-(tetrahydropyran-4-yl)amino]methyl]phenyl]-7-(4-propoxyethoxyphenyl)-1-(2-thienylmethyl)-2,3-dihydro-1-benzazepine-4-carboxamide], the melting point fell in the range of 104.5 to 105.5 °C.

For `CCCCOCCOc1ccc(-c2ccc3c(c2)C=C(C(=O)Nc2ccc(CN(C)C4CCOCC4)cc2)CCN3Cc2cccs2)cc1` [Compound 60, 7-(4-butoxyethoxyphenyl)-N-[4-[[N-methyl-N-(tetrahydropyran-4-yl)amino]methyl]phenyl]-1-(2-thienylmethyl)-2,3-dihydro-1-benzazepine-4-carboxamide], the melting point lay in the range of 84 to 85 °C.

In turn, `CCCOCCOc1ccc(-c2ccc3c(c2)C=C(C(=O)Nc2ccc(CN(C)C4CCOCC4)cc2)CCN3Cc2ccoc2)cc1` [Compound 61, 1-(3-furylmethyl)-N-[4-[[N-methyl-N-(tetrahydropyran-4-yl)amino]methyl]phenyl]-7-(4-propoxyethoxyphenyl)-2,3-dihydro-1-benzazepine-4-carboxamide] registered a melting point of 115 to 116 °C.

As to `CCCCOCCOc1ccc(-c2ccc3c(c2)C=C(C(=O)Nc2ccc(CN(C)C4CCOCC4)cc2)CCN3Cc2ccoc2)cc1` [Compound 62, 7-(4-butoxyethoxyphenyl)-1-(3-furylmethyl)-N-[4-[[N-methyl-N-(tetrahydropyran-4-yl)amino]methyl]phenyl]-2,3-dihydro-1-benzazepine-4-carboxamide], the melting point fell in the range of 116 to 117 °C.

Regarding `CCCCOCCOc1ccc(-c2ccc3c(c2)C=C(C(=O)Nc2ccc(CN(C)C4CCOCC4)cc2)CCN3Cc2ccccc2OCC)cc1` [Compound 63, 7-(4-butoxyethoxyphenyl)-1-(2-ethoxybenzyl)-N-[4-[[N-methyl-N-(tetrahydropyran-4-yl)amino]methyl]phenyl]-2,3-dihydro-1-benzazepine-4-carboxamide], the melting point lay within 104.5 to 105.5 °C.

`CCCCOCCOc1ccc(-c2ccc3c(c2)C=C(C(=O)Nc2ccc(CN(C)C4CCOCC4)cc2)CCN3Cc2cccc(OCCC)c2)cc1` [Compound 64, 7-(4-butoxyethoxyphenyl)-N-[4-[[N-methyl-N-(tetrahydropyran-4-yl)amino]methyl]phenyl]-1-(3-propoxybenzyl)-2,3-dihydro-1-benzazepine-4-carboxamide] yielded a melting point of 114.5 to 115.5 °C.

Molecule `CCCCOCCOc1ccc(-c2ccc3c(c2)C=C(C(=O)Nc2ccc(CN(C)C4CCOCC4)cc2)CCN3Cc2cc(OC)ccc2OC)cc1` [Compound 65, 7-(4-butoxyethoxyphenyl)-1-(2,5-dimethoxybenzyl)-N-[4-[[N-methyl-N-(tetrahydropyran-4-yl)amino]methyl]phenyl]-2,3-dihydro-1-benzazepine-4-carboxamide] showed a melting point of 143 to 144 °C.

As for `CC#CCN1CCC(C(=O)Nc2ccc(CN(C)C3CCOCC3)cc2)=Cc2cc(-c3ccc(OCCOCCCC)cc3)ccc21` [Compound 95, 7-[4-(2-butoxyethoxy)phenyl]-1-(2-butynyl)-N-[4-[N-methyl-N-(tetrahydropyran-4-yl)aminomethyl]phenyl]-2,3-dihydro-1-benzazepine-4-carboxamide], the melting point is 129 to 131 °C.

As to `CCCOCCOc1ccc(-c2ccc3c(c2)C=C(C(=O)Nc2ccc(CN(C)C4CCOCC4)cc2)CCN3CCCOC)cc1` [Compound 103, 1-(3-methoxypropyl)-N-[4-[[N-methyl-N-(tetrahydropyran-4-yl)amino]methyl]phenyl]-7-[4-(2-propoxyethoxy)phenyl]-2,3-dihydro-1H-1-benzazepine-4-carboxamide], the melting point lay within 87 to 90 °C.
